According to patent publication US10190138B2, “Methods using short chain peracids to replace antibiotics for controlling fermentation process infection” (Ecolab USA Inc., priority 2012, dated 2019):

What was measured:
Lactobacilli = conditions: 2 hours of contact time in the absence of yeast; cited from earlier work
[1] = pH 4
Excerpt: The issue of low solubility when using long chain peracids has been addressed by increasing the pH to above 7. […] Further, bleaching efficacy decreases proportionally with every pH unit increase over about 7.

L. fermentum = assay: MRS broth fermentation, CO2 respirometry; type: cell-based, Lactobacillus fermentum; conditions: 1 ppm, 1×10^5 cell/mL start
Description: Solutions of Vortexx and Octave were provided by the Ecolab, Inc. The antibiotic Virginiamycin was purchased from SantaCruz Biotechnology. Ethanol Red yeast (Fermentis), and Lactobacillus fermentum were revived from 10% glycerol stocks maintained at […]. Yeast was grown at 30° C. under aerobic conditions in either liquid YPD medium or on YPD agar prior to use in propagations and fermentations. Bacteria were grown at 30° C. under anaerobic conditions in either liquid MRS broth, and or on MRS agar plates. Liquefied corn mash and gluco-amylase enzyme was provided by Illinois River Energy (Rochelle, Ill.).
Fermentations were conducted in Wheaton glass bottles placed in a 30° C. recirculating water bath atop an 8-position magnetic stir-plate. Each bottle was sealed with a rubber septum cap and connected through ⅛″ tubing to a respirometer instrument (Challenger Instruments), which quantified the off-gassing of CO2 during fermentation.
MRS broth fermentations were conducted in 0.125 L Wheaton bottles, each containing the 100 mL of MRS broth and 4 mL propagated bacteria. […]
MRS broth, which contains only 0.6% solids compared to typical liquefied corn mash at 30% solids, represents a relatively simple test of the effectiveness of the peracid chemistries for controlling Lactobacillus growth. […] All bottles were placed monitored via respirometry under identical conditions. […]

Molecule: OO [hydrogen peroxide]
- hydrogen peroxide required for effective bacterial control (Lactobacilli): 600 ppm

Molecule: O=C(CCCCCCCCCCS(=O)(=O)O)OO [11-sulfoundecane peroxoic acid]
- solubility [1]: about 1.3%

Molecule: Virginiamycin
- CO2 production (L. fermentum): failed to produce any CO2
- bacterial growth (L. fermentum): no bacterial growth
